PMC7968666, “The pharmacokinetics and drug-drug interactions of ivermectin in Aedes aegypti mosquitoes” (PLoS Pathogens, 2021)
“And” between values parts separate entries of the source, which are not always exact repeats. Equal entries are not always repeated. “Also recorded” adds a separate entry of the source.

Columns and labels:
[1] = Pharmacokinetic and drug-drug interaction studies in blood-fed mosquitoes (concentration-time courses, population PK modelling); details: for Ivermectin concentration in single mosquito: IVM (0.1 µg/ml) in human blood, Batch 4, individual mosquitoes, listed as IVM
[2] = Mosquito dosing experiments: ivermectin recovered from single mosquitoes directly after membrane blood feeding (LC-MS/MS); type: in vivo, Aedes aegypti
Procedure: Drug stock solutions were prepared in DMSO and added to blank human blood at a ratio of 1:1000 so that the DMSO content was less than 0.2%. The mixtures were rotated at room temperature for 30 min to ensure a uniform drug distribution (Rotator Genie, Scientific Industries, Bohemia, USA). The sugar water within the mosquito cages was replaced by tap water 24 h prior to the PK experiments. Twelve hours later, the tap water was also removed to starve the mosquitoes. On the day of the PK experiment, 25–35 starved, female mosquitoes with an age of 6–7 days post-emergence were transferred with a mouth aspirator into 2 dl paper cups that were sealed with a piece of mosquito netting. […] A petri dish (35 mm x 10 mm, BD, Franklin Lakes, USA) was filled with 2.55 ml of warm blood, sealed with a piece of Parafilm (Parafilm M sealing film, Huberlab AG, Aesch, Switzerland) stretched over the rim and turned upside down on top of the paper cup. The mosquitoes were then feeding from blood through the netting and the Parafilm membrane. The feeding was conducted in a climate chamber (HPP110, Memmert GmbH + Co.KG, Schwabach, Germany) at 26° C, 70% humidity, and 50% light intensity. The photoperiod of the climate chamber and the insectary were synchronised. After 20 min of feeding, the cups were placed on ice to immobilise the mosquitoes and separate the fully engorged ones. […]
The first aim was to evaluate the variability of the blood uptake by the mosquitoes. […] The strength of the association was assessed using a linear regression model and its correlation coefficient R^2 using GraphPad prism software 9.0.0 (San Diego, USA). […]
Mosquito extracts were analysed using a modular ultra-high-pressure liquid chromatography (UPLC) system from Shimadzu (Kyoto, Japan) connected to an API 5500 QTRAP tandem mass spectrometer (AB Sciex, Massachusetts, USA). A previously developed and validated LC-MS/MS method for the quantification of ivermectin in human plasma and blood was used for the analyses. […]

[3] = ivermectin 0.1 μg/ml plus ritonavir 10 μg/ml in blood
[4] = non-parametric bootstrap analysis (n = 1’000)

CCC(C)C1OC2(CCC1C)CC1CC(CC=C(C)C(OC3CC(OC)C(OC4CC(OC)C(O)C(C)O4)C(C)O3)C(C)C=CC=C3COC4C(O)C(C)=CC(C(=O)O1)C34O)O2 (stereo not shown) [ivermectin]
zero-order elimination rate ([1]; 0.1 μg/ml ivermectin in blood, pharmacometric modelling): 5.5 pg/h | Course / extent of elimination from the mosquitoes ([1]; IVM 0.1, KCZ 5, RIF 10, PBO 10 μg/ml in blood, up to 72 h): after 72 h only traces of ivermectin were still detectable | Type of elimination kinetics in the mosquito ([1]; IVM 0.1, KCZ 5, RIF 10, RTV 10, PBO 10 μg/ml in blood): zero-order elimination; also recorded: zero-order kinetics | Ivermectin concentration in single mosquito ([1]; 0 h post feeding): 0.079 ng/mg msq (2×) and 0.077 ng/mg msq (2×) and 0.075 ng/mg msq and 0.084 ng/mg msq (2×) and 0.087 ng/mg msq and 0.089 ng/mg msq (2×) and 0.085 ng/mg msq and 0.088 ng/mg msq and 0.078 ng/mg msq (2×) and 0.083 ng/mg msq (4×) and 0.062 ng/mg msq and 0.074 ng/mg msq | Ivermectin concentration in single mosquito ([1]; 6 h post feeding): 0.100 ng/mg msq (2×) and 0.086 ng/mg msq (2×) and 0.098 ng/mg msq and 0.092 ng/mg msq (2×) and 0.079 ng/mg msq and 0.085 ng/mg msq and 0.104 ng/mg msq and 0.082 ng/mg msq and 0.094 ng/mg msq and 0.083 ng/mg msq and 0.103 ng/mg msq (2×) and 0.160 ng/mg msq and 0.148 ng/mg msq and 0.096 ng/mg msq and 0.111 ng/mg msq and 0.113 ng/mg msq | Ivermectin concentration in single mosquito ([1]; 12 h post feeding): 0.073 ng/mg msq and 0.065 ng/mg msq and 0.093 ng/mg msq (2×) and 0.095 ng/mg msq (2×) and 0.090 ng/mg msq (3×) and 0.085 ng/mg msq (2×) and 0.063 ng/mg msq and 0.087 ng/mg msq and 0.077 ng/mg msq and 0.104 ng/mg msq and 0.116 ng/mg msq and 0.103 ng/mg msq and 0.086 ng/mg msq and 0.098 ng/mg msq and 0.124 ng/mg msq | Ivermectin concentration in single mosquito ([1]; 24 h post feeding): 0.073 ng/mg msq (2×) and 0.070 ng/mg msq (2×) and 0.074 ng/mg msq and 0.068 ng/mg msq and 0.090 ng/mg msq and 0.064 ng/mg msq (3×) and 0.067 ng/mg msq and 0.078 ng/mg msq and 0.055 ng/mg msq and 0.062 ng/mg msq and 0.058 ng/mg msq and 0.072 ng/mg msq and 0.056 ng/mg msq (2×) and 0.084 ng/mg msq and 0.057 ng/mg msq | Ivermectin concentration in single mosquito ([1]; 36 h post feeding): 0.068 ng/mg msq (3×) and 0.044 ng/mg msq and 0.052 ng/mg msq and 0.090 ng/mg msq and 0.039 ng/mg msq and 0.038 ng/mg msq and 0.056 ng/mg msq and 0.053 ng/mg msq and 0.071 ng/mg msq and 0.060 ng/mg msq (2×) and 0.050 ng/mg msq and 0.036 ng/mg msq and 0.051 ng/mg msq and 0.062 ng/mg msq and 0.043 ng/mg msq and 0.037 ng/mg msq and 0.073 ng/mg msq | IOV dose (inter-occasion variability), estimate ([1]; final population PK model): 0.11 | Inter-individual variability (ω) of dose, estimate ([1]; final population PK model): 0.075 | Inter-individual variability (ω) of kel, estimate ([1]; final population PK model): 0.25 | kel (zero-order elimination rate), estimate ([1]; final population PK model, 0.1 μg/ml ivermectin in blood): 0.0055 ng/h | dose (amount absorbed from the blood meal), estimate ([1]; final population PK model, 0.1 μg/ml ivermectin in blood, median mosquito weight 3.4 mg): 0.28 ng | Amount of ivermectin imbibed per feeding, mean ± SD ([1]; human blood spiked with 0.1 μg/ml ivermectin, four batches): 0.36 ± 0.06 ng | Effect of ritonavir on the elimination rate of ivermectin [1, 3]: not affected | Increase of ivermectin exposure (AUC) compared to ivermectin alone [1, 3]: 29% | IOV dose, bootstrap median [1, 4]: 0.11 | Inter-individual variability (ω) of dose, bootstrap median [1, 4]: 0.075 | Inter-individual variability (ω) of kel, bootstrap median [1, 4]: 0.25 | Tlag, bootstrap median [1, 4]: 18.5 h | dose, bootstrap median [1, 4]: 0.28 ng | Tlag_add_rit, bootstrap median ([1]; non-parametric bootstrap analysis (n = 1’000), ritonavir co-treatment): 11.4 h | Saturation of uptake over the dose range ([2]; 0.01–1 μg/ml ivermectin in blood): no saturation was observed; also recorded: without showing saturation | Dosing precision (%CV) of ivermectin, adjusted for mosquito weight ([2]; 0.01–1 μg/ml ivermectin in blood, n = 30 mosquitoes per dose): less than 13.4% | Ivermectin concentration per mosquito weight ([2]; ivermectin dose 0.01 µg/ml in blood, directly after feeding, single mosquitoes 1-30): 0.007 ng/mg and 0.009 ng/mg and 0.008 ng/mg and 0.010 ng/mg and 0.011 ng/mg
